Marks after values point to notes of the source that are not given here.
Assays:
[1] = tested on: rats with pressure overload; assay: Arterial pressure and heart rate in rats with pressure overload; assay type: in vivo, rat
Source text: FIGS. 9A–9C Effects of IFN-γ on systolic arterial pressure, mean arterial pressure, and diastolic arterial pressure in rats with pressure overload. The number in parenthesis is the number of animals in each group. **P<0.01, compared to the sham group. Sham: sham-operated rats; Banded: aortic-banded rats; IFN: IFN-γ, SAP: systolic arterial pressure; MAP: mean arterial pressure; DAP: diastolic arterial pressure.
(§1) Experimental protocol in rats with pressure overload The rats with aortic banding randomly received subcutaneous injection of IFN-γ at 0.08 mg/k twice a day for one day before surgery and for 14 days after surgery. Sham animals were not treated. Thirteen days after treatment, a catheter was implanted into the right carotid artery under anesthesia as indicated above. One day after implantation, arterial pressure and HR were measured in conscious rats. The heart and other organs including the liver, kidney, and spleen were removed, weighed, and fixed in 10% buffered formalin for pathological studies. The left ventricle was quickly dissected and frozen with liquid nitrogen in some animals and stored at −80° C. for assessment of gene expression.

[2] = tested on: left ventricle of rats with pressure overload; assay: Cardiac gene expression (real-time RT-PCR) in rats with pressure overload; assay type: in vivo, rat
Procedure: as §1
RNA preparation Total RNA was isolated using RNeasy Maxi Columns (Qïägen) according to the manufacturer's instructions.
RT-PCR Real-time RT-PCR (TaqMan) technology was used to compare the gene expression between the various treatment groups. An oligonucleotide probe containing a fluorescent reporter dye, […], at the 3′-end was designed to hybridize to the amplicon defined by two PCR primers. A 3′-blocking phosphate prevents extension of the probe. The reporter dye is released from the probe by the 5′ exonuclease activity of Taq polymerase during the extension phase of PCR reaction. […] The threshold cycle number (Ct), defined as the point where the reporter fluorescence reaches a value greater than 10 times the standard deviation of the baseline, is […] to the amount of amplicon produced from the sample. Since the fluorescence is detected during the exponential phase of the amplification, none of the reaction components are limiting. In each experiment, a control is analyzed that lacks the RNA template to monitor for contamination, and another control is included where the RT step is omitted to eliminate amplification of possible contaminating DNA as the source of the signal. Reactions are optimized to give the greatest fluorescence signal and smallest Ct by titration of magnesium and primer concentrations, and the product is run on an agarose gel to verify the presence of a single band at the predicted molecular weight. In addition, the sequence of the amplicon is screened against Genbank to eliminate the possibility of overlap with closely related genes.
For each sample the mRNA for each target gene is determined using a standard curve as described below and then normalized to the amount of glyceraldehyde-3-phosphate-dehydrogenase (GAPDH) in the sample (see below for specifics of this calculation). The relative abundance of each target gene to GAPDH can then be compared among treatment groups.
RT-PCR was performed on 1 ng of total RNA per reaction using the TaqMan Model 7700 Sequence Detector (ABI-Perkin Elmer) (Gibson et al., Genome Res. 6, 995–1001 [1996]). Amplification reaction conditions (for 50 μl) were 1×TaqMan Buffer A, 200 μM dATP, dCTP, dGTP, and 400 μM dUTP, 10% glycerol, 6.5 mM MgCl2, 50 U MuLV reverse transcriptase, 20 U RNase Inhibitor, 1.25 U AmpliTaq Gold, 100 nM forward and reverse primers, and 100 nM fluorogenic probe. RT-PCR reagents and glycerol were purchased from Perkin Elmer and Sigma, respectively. Reactions were performed in MicoAmp Optical Tubes and Caps (ABI-Perkin Elmer). TaqMan primers and probes were designed according to guidelines determined by Perkin Elmer and synthesized at Genentech, Inc., except for those for rodent GAPDH which were a generous gift from Perkin Elmer. Reverse transcription was performed at 48° C. for 30 minutes followed by heat activation of AmpliTaq Gold at 95° C. for 10 minutes. Thermal cycling was at 95° C. for 30 seconds and 60° for 1.5 minutes for 40 cycles.
Quantitation of the TaqMan results was performed as described by Heid et al., Genome Res. 6:986–994 (1996), with modifications. Briefly, standard curves (1:5 serial dilution) for each target gene of interest were run in duplicate. […]

[3] = pressure overload, ratio to glyceraldehyde-3-phosphate dehydrogenase, mean ± SEM, n = 6

Substance: IFN-γ: recombinant mouse IFN-γ (Genentech, Inc., South San Francisco, Calif., or Genzyme, Cambridge, Mass.)
- Incremental increase in arterial pressure (MAP, systolic, diastolic) in banded rats, IFN-γ vs vehicle ([1]; FIG. 9): not different
- HR, heart rate ([1]; pressure overload, conscious rats, IFN-γ 0.08 mg/kg s.c. twice a day, mean ± SEM): 418 ± 19* bpm
- Effects of aortic constriction on α-smooth muscle actin and collagen I gene expression ([2]; banded rats, Table 3): inhibited
- ANF, atrial natriuretic factor expression [2, 3]: 3.61 ± 1.32
- COLI, collagen I expression [2, 3]: 0.77 ± 0.10
- COLIII, collagen III expression [2, 3]: 0.72 ± 0.09
- FIB, fibronectin expression [2, 3]: 0.97 ± 012
- SKA, α-skeletal actin expression [2, 3]: 2.47 ± 0.51
- SMA, α-smooth muscle actin expression [2, 3]: 0.77 ± 0.06
- βMHC, β-myosin heavy chain expression [2, 3]: 1.71 ± 0.14
